From patent US20240360126A1, “PYRAZOLO[3,4-B]PYRIDINE COMPOUNDS FOR THE TREATMENT OF AUTOIMMUNE DISEASE” (Hoffmann-La Roche Inc., priority 2021, published 2024) come the findings set out here.

The term IC20 denotes the concentration needed for an effect of 20%. High values mean weaker potency, low ones greater potency.

Data set [1] concerns the target T1, human TLR7 (Homo sapiens, UniProt Q9NYK1).
T1 construct: host or cells: HEK293 (HEK-Blue hTLR7)
T1 sequence (Q9NYK1 27-1049): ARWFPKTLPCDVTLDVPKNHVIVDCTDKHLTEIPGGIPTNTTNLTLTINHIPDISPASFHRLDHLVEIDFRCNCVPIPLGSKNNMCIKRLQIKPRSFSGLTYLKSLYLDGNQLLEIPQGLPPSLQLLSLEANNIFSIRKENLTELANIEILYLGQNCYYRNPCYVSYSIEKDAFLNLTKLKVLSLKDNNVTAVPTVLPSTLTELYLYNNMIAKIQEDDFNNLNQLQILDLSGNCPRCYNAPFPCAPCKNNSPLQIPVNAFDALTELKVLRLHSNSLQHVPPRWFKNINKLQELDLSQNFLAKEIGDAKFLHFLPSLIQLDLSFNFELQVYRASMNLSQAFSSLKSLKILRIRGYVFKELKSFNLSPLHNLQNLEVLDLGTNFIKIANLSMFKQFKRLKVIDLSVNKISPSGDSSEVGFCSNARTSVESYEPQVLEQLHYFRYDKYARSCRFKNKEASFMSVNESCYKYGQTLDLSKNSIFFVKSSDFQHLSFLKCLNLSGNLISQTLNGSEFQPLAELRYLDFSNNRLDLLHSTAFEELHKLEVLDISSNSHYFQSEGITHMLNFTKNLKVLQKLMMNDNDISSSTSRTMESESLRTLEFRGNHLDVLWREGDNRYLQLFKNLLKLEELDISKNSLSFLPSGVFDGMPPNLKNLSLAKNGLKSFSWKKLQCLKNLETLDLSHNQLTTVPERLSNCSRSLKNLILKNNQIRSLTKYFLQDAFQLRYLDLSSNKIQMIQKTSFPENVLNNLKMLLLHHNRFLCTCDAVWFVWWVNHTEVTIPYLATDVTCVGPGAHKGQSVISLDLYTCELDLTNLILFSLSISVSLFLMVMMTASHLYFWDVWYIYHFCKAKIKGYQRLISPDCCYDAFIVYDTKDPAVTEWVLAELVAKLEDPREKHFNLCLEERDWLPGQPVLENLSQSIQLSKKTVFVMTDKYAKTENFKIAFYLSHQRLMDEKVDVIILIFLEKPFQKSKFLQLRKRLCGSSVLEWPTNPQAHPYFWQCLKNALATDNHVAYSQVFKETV
Put plainly: HEK293-Blue-hTLR-7 cells assay. The class given is cell-based. The following applies: HEK293-Blue-hTLR7 cells, R848 stimulation, 20 hrs; read-out: HEK/hTLR7 IC50. From the text: A stable HEK293-Blue-hTLR-7 cell line was purchased from InvivoGen (Cat. #: hkb-htlr7, San Diego, California, USA). These cells were originally designed for studying the stimulation of human TLR7 by monitoring the activation of NF-κB. A SEAP (secreted embryonic alkaline phosphatase) reporter gene was placed under the control of the IFN-β minimal promoter fused to five NF-κB and AP-1-binding sites. The SEAP was induced by activating NF-κB and AP-1 via stimulating HEK-Blue hTLR7 cells with TLR7 ligands. Therefore the reporter expression was declined by TLR7 antagonist under the stimulation of a ligand, such as R848 (Resiquimod), for incubation of 20 hrs. The cell culture supernatant SEAP reporter activity was determined using QUANTI-Blue™ kit (Cat. #: rep-qbl, Invivogen, San Diego, Ca, USA) at a wavelength of 640 nm, a detection medium that turns purple or blue in the presence of alkaline phosphatase.
HEK293-Blue-hTLR7 cells were incubated at a density of 250,000-450,000 cells/mL in a volume of 170 μL in a 96-well plate in Dulbecco's Modified Eagle's medium (DMEM) containing 4.5 g/L glucose, 50 U/mL penicillin, […] streptomycin, […] Normocin, […] L-glutamine, 10% […] heat-inactivated fetal bovine serum with addition of 20 μL test compound in a serial dilution in the presence of final DMSO at 1% and 10 μL of 20 μM R848 in above DMEM, perform incubation under 37° C. in a CO2 incubator for 20 hrs. Then 20 μL of the supernatant from each well was incubated with 180 μL Quanti-blue substrate solution at 37° C. for 2 hrs and the absorbance was read at […] using a spectrophotometer. The signaling pathway that TLR7 activation leads to downstream NF-κB activation has been widely accepted, and therefore similar reporter assay was modified for evaluating TLR7 antagonist.

The target of data set [2] is T2, hERG K+ channel (Homo sapiens, UniProt Q12809).
T2 construct: expressed in transfected cells; host or cells: CHO (Chinese hamster ovary)
Nature of the data set: hERG channel inhibition assay (patch-clamp, CHO-hERG cells). The following applies: for IC50 / IC20: CHO-hERG cells, whole-cell patch-clamp; for IC20: human, CHO cells stably expressing hERG; for hERG IC20/TLR7 IC50 / hERG IC20/TLR8 IC50 / hERG IC20/TLR9 IC50: safety ratio. The class given is cell-based. As to the method: The hERG K^+ channels were cloned in humans and stably expressed in a CHO (Chinese hamster ovary) cell line. CHOhERG cells were used for patch-clamp (voltage-clamp, whole-cell) experiments. Cells were stimulated by a voltage pattern to activate hERG channels and conduct IKhERG Currents (rapid delayed outward rectifier potassium current of the hERG channel). After the cells were stabilized for a few minutes, the amplitude and kinetics of IKhERG were recorded at a stimulation frequency of 0.1 Hz (6 bpm). Thereafter, the test compound was added to the preparation at increasing concentrations. For each concentration, an attempt was made to reach a steady-state effect, usually, this was achieved within 3-10 min at which time the next highest concentration was applied. The amplitude and kinetics of IKhERG are recorded in each concentration of the drug which were compared to the control values (taken as 100%). (references: Redfe W S, Carlsson L, Davis A S, Lynch W G, MacKenzie I, Palethorpe S, Siegl P K, Strang I, Sullivan A T, Wallis R, Camm A J, Hammond T G. 2003; Relationships between preclinical cardiac electrophysiology, clinical QT interval prolongation and torsade de pointes for a broad range of drugs: evidence for a provisional safety margin in drug development. Cardiovasc. Res. 58:32-45, Sanguinetti M C, Tristani-Firouzi M. 2006; hERG potassium channels and cardiac arrhythmia. Nature 440:463-469, Webster R, Leishman D, Walker D. 2002; Towards a drug concentration effect relationship for QT prolongation and torsades de pointes. Curr. Opin. Drug Discov. Devel. 5:116-26).

T2 sequence (Q12809 whole entry): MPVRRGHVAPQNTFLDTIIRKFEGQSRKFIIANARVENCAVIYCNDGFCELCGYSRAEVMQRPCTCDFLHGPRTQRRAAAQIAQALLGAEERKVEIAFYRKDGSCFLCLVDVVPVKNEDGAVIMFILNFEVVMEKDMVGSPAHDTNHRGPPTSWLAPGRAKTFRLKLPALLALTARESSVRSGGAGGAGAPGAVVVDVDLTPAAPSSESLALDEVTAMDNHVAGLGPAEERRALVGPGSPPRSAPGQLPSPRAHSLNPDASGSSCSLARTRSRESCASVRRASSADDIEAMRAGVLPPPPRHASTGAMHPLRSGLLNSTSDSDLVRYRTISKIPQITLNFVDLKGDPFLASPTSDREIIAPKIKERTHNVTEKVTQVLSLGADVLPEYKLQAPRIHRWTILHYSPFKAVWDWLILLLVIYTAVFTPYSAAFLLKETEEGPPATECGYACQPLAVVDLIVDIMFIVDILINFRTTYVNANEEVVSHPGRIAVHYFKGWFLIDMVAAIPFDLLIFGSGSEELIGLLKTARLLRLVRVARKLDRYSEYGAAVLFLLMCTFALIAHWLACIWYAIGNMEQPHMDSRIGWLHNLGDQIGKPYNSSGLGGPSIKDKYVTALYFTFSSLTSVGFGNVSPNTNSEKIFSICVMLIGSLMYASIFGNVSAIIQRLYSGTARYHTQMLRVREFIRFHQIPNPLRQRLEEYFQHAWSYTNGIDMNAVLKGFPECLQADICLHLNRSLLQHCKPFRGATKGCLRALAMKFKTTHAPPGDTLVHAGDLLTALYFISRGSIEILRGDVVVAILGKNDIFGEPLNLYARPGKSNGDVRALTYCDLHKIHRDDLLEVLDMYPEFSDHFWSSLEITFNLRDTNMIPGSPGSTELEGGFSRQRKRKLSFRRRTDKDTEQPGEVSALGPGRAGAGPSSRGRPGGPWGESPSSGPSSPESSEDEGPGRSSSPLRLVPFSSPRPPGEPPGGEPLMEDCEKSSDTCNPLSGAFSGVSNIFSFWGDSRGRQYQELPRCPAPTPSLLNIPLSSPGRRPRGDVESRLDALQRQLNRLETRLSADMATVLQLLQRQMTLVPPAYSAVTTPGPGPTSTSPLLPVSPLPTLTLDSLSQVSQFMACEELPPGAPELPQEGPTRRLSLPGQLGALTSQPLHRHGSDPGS

In the case of `Cc1cc(N2CCC(c3ncc(N4CCNCC4)cc3C)[C@H](C)C2)c2cnn(C)c2n1` (single isomer, unassigned) [Example 25, 1,6-dimethyl-4-[trans-3-methyl-4-(3-methyl-5-piperazin-1-yl-2-pyridyl)-1-piperidyl]pyrazolo[3,4-b]pyridine], in data set [1], the IC50 turned out to be 0.009 µM. In data set [2], the IC50 was over 20 µM, the IC20 is over 10 µM, the “hERG IC20/TLR7 IC50” value is reported as over 1111.1 and the “hERG IC20/TLR8 IC50” value is recorded as over 1428.6. Further, the “hERG IC20/TLR9 IC50” value in data set [2] was over 102.0.
In the case of `Cc1cc(N2CCC(c3ccc(N4CCNCC4)cc3)CC2)c2cnn(C)c2n1` [Example 1, 1,6-dimethyl-4-[4-(4-piperazin-1-ylphenyl)-1-piperidyl]pyrazolo[3,4-b]pyridine], the IC50 in data set [1] came to 0.053 µM. In data set [2], the IC50 is over 10 µM, it took 4 µM to reach the 20% level (IC20), the “hERG IC20/TLR7 IC50” value is listed as 75.5 and the “hERG IC20/TLR8 IC50” value is reported as 333.3. For the same compound, the “hERG IC20/TLR9 IC50” value in data set [2] is 14.5.
As to `Cc1cc(N2CCC(c3ccc(N4CCNCC4)cn3)CC2)c2cnn(C)c2n1` [Example 2, 1,6-dimethyl-4-[4-(5-piperazin-1-yl-2-pyridyl)-1-piperidyl]pyrazolo[3,4-b]pyridine], the IC50 in data set [1] worked out at 0.027 µM. Besides, in data set [2], the IC50 is over 20 µM, the IC20 was over 10 µM, the “hERG IC20/TLR7 IC50” value is given as over 370.4 and the “hERG IC20/TLR8 IC50” value is listed as over 476.2. The “hERG IC20/TLR9 IC50” value in data set [2] was over 70.4.
For `Cc1cc(N2CCNCC2)ncc1C1CCN(c2ccnc3c2cnn3C)CC1` [Example 6, 1-methyl-4-[4-(4-methyl-6-piperazin-1-yl-3-pyridyl)-1-piperidyl]pyrazolo[3,4-b]pyridine], the IC50 in data set [1] was determined as 0.007 µM. For the same compound, in data set [2], the IC50 was over 10 µM, the IC20 stood at 4.4 µM, the “hERG IC20/TLR7 IC50” value worked out at 628.6 and the “hERG IC20/TLR8 IC50” value was 118.9. Also, in data set [2], the “hERG IC20/TLR9 IC50” value is 21.2.
For `Cc1cc(N2CCC(c3ncc(N4CCNCC4)cc3C)CC2)c2cnn(C)c2n1` [Example 7, 1,6-dimethyl-4-[4-(3-methyl-5-piperazin-1-yl-2-pyridyl)-1-piperidyl]pyrazolo[3,4-b]pyridine], in data set [1], the IC50 was found to be 0.011 µM. Also, in data set [2], the IC50 is over 20 µM, the IC20 worked out at 5.1 µM, the “hERG IC20/TLR7 IC50” value is given as 463.6 and the “hERG IC20/TLR8 IC50” value came to 175.9. For the same compound, in data set [2], the “hERG IC20/TLR9 IC50” value amounted to 98.1.
Regarding `Cc1cc(N2CCC(c3cnc(N4CCNCC4)nc3C)CC2)c2cnn(C)c2n1` [Example 11, 1,6-dimethyl-4-[4-(4-methyl-2-piperazin-1-yl-pyrimidin-5-yl)-1-piperidyl]pyrazolo[3,4-b]pyridine], the IC50 in data set [1] is 0.037 µM. In data set [2], the IC50 is over 20 µM, the IC20 was 7.5 µM, the “hERG IC20/TLR7 IC50” value came to 202.7 and the “hERG IC20/TLR8 IC50” value is 178.6. The “hERG IC20/TLR9 IC50” value in data set [2] is given as 72.1.
Consider `CO[C@@H]1CN(c2cnc([C@@H]3CCN(c4cc(C)nc5c4cnn5C)C[C@H]3C)c(C)c2)C[C@H]1N` [Example 26, (3R,4R)-1-[6-[(3S,4R)-1-(1,6-dimethylpyrazolo[3,4-b]pyridin-4-yl)-3-methyl-4-piperidyl]-5-methyl-3-pyridyl]-4-methoxy-pyrrolidin-3-amine], for which, in data set [1], the IC50 was 0.012 µM. In data set [2], the IC50 is over 20 µM, the IC20 was over 10 µM, the “hERG IC20/TLR7 IC50” value is given as over 833.3 and the “hERG IC20/TLR8 IC50” value is listed as over 714.3. In data set [2], the “hERG IC20/TLR9 IC50” value was over 91.7.
As to `Cc1cc(N2CC[C@@H](c3ncc(N4CCOC[C@@H](N)C4)cc3C)[C@H](C)C2)c2cnn(C)c2n1` [Example 28, (6S)-4-[6-[(3S,4R)-1-(1,6-dimethylpyrazolo[3,4-b]pyridin-4-yl)-3-methyl-4-piperidyl]-5-methyl-3-pyridyl]-1,4-oxazepan-6-amine], the IC50 in data set [1] is 0.007 µM. Moreover, in data set [2], the IC50 was over 20 µM, the 20% effect level (IC20) was put at 6.4 µM, the “hERG IC20/TLR7 IC50” value is 914.3 and the “hERG IC20/TLR8 IC50” value came out at 3200.0. Besides, in data set [2], the “hERG IC20/TLR9 IC50” value was determined as 50.8.
`COC[C@H]1CN(c2cnc([C@@H]3CCN(c4cc(C)nc5c4cnn5C)C[C@H]3C)c(C)c2)CCN1` [Example 29, 4-[(3S,4R)-4-[5-[(3R)-3-(methoxymethyl)piperazin-1-yl]-3-methyl-2-pyridyl]-3-methyl-1-piperidyl]-1,6-dimethyl-pyrazolo[3,4-b]pyridine]: in data set [1], the IC50 came to 0.005 µM. Further, in data set [2], the IC50 is over 10 µM, it took 4.4 µM to reach the 20% level (IC20), the “hERG IC20/TLR7 IC50” value stood at 880.0 and the “hERG IC20/TLR8 IC50” value is given as 550.0. Moreover, in data set [2], the “hERG IC20/TLR9 IC50” value is 18.5.
In the case of `Cc1cc(N2CC[C@@H](c3ncc(N4CC(C)(N)C4)cc3C)[C@H](C)C2)c2cnn(C)c2n1` [Example 32, 1-[6-[(3S,4R)-1-(1,6-dimethylpyrazolo[3,4-b]pyridin-4-yl)-3-methyl-4-piperidyl]-5-methyl-3-pyridyl]-3-methyl-azetidin-3-amine], the IC50 in data set [1] came out at 0.008 µM. Besides, in data set [2], the IC50 is over 10 µM, the IC20 is 4.4 µM, the “hERG IC20/TLR7 IC50” value turned out to be 550.0 and the “hERG IC20/TLR8 IC50” value was found to be 293.3. Further, the “hERG IC20/TLR9 IC50” value in data set [2] is reported as 23.7.
Regarding `Cc1cc(N2CC[C@@H](c3ncc(N4C[C@H]5NCCO[C@@H]5C4)cc3C)[C@H](C)C2)c2cnn(C)c2n1` [Example 33, (4aR,7aR)-6-[6-[(3S,4R)-1-(1,6-dimethylpyrazolo[3,4-b]pyridin-4-yl)-3-methyl-4-piperidyl]-5-methyl-3-pyridyl]-3,4,4a,5,7,7a-hexahydro-2H-pyrrolo[3,4-b][1,4]oxazine], in data set [1], the IC50 was 0.011 µM. In data set [2], the IC50 was over 10 µM, it took 4.1 µM to reach the 20% level (IC20), the “hERG IC20/TLR7 IC50” value is listed as 372.7 and the “hERG IC20/TLR8 IC50” value was 1366.7. Further, in data set [2], the “hERG IC20/TLR9 IC50” value is recorded as 51.9.
